From patent publication USRE30354E, “Novel ethereally monosubstituted monosaccharides” (Strategic Medical Research Corp., priority 1978, dated 1980) come the findings set out here.

One data set in a line: light sensitivity. The format is physicochemical.
Another data set relates to herpes simplex virus. The data set can be described thus: inhibition of herpes simplex virus multiplication in tissue culture (plaque formation technic of Rapp). The note with it: for IC50: read-out: Concentration required to exert 50% inhibition of herpes-induced plaque formation; for IC100: read-out: Concentration required to exert 100% inhibition of herpes-induced plaque formation. The data set is classed as cell-based.

The subject of data set [1] is influenza A2 virus, Hong Kong strain. The data set can be described thus: microbe, parasite or virus in culture. The format is cell-based.
In another data set the test system is influenza A2 /Hong Kong. The data set can be described thus: suppression of influenza A2/Hong Kong disease in mice (lung weight). The note with it: 40 mg/Kg orally from 24 h post-infection; 8 days; from lung weights; 50% of drug blocked at 1,2- with acetone. The format is in vivo.
The next data set concerns influenza A/PR/8. The data set can be described thus: prevention of death in mice with lethal influenza A/PR/8 infection. The data set is classed as in vivo. The note with it: for % of Population Protected / % Mortality: 8 days; for % Mortality: control 95. As to the method: The above medication was also examined for its capacity to prevent death in mice ill with a lethal influenza A/PR/8 infection. The drug was given subcutaneously at 3 dose levels, once 90 minutes before infection.

Where [2] appears, read: 10 mg/Kg s.c. once 90 min before infection.
The mark [3] stands for this setting: 40 mg/Kg s.c. once 90 min before infection.
[4] abbreviates: 160 mg/Kg s.c. once 90 min before infection.

In brackets after ≈: the same amount, converted by molar mass. Where only a bound is given, the exact number is not on record here.

As to 3-O-D-glucopropionitrile, the light sensitivity entry in the data set “light sensitivity” was “photosensitive”.
As to `CCN(CC)CCOC1C(C2COC(C)(C)O2)OC2OC(C)(C)OC21` [1,2:5,6-di-O-isopropylidene-3-O-2'-(N',N'-diethylaminoethyl)-D-glucofuranose], in the data set with herpes simplex virus, the IC50 stood at 6 µg/mL (≈ 16.7 µM) and the IC100 amounted to 30 µg/mL.
`CCN(CC)CCO[C@H]1[C@H](O)[C@@H](CO)OC(O)[C@@H]1O` (stereo partly drawn) [3-O-2'-(N',N'-diethylaminoethyl)-D-glucopyranose]: in the data set with herpes simplex virus, the IC50 amounted to 2 µg/mL (≈ 7.16 µM) and the IC100 came out at 20 µg/mL.
For `CC(CN(C)C)O[C@H]1[C@H](O)[C@@H](CO)OC(O)[C@@H]1O` (stereo partly drawn) [3-O-2'-(N',N'-dimethylaminopropyl)-D-glucopyranose], in the data set with herpes simplex virus (herpes simplex, tissue culture), the “Concentration required to exert 50% inhibition of herpes-induced plaque formation” value turned out to be 3 µg/mL and the “Concentration required to exert 100% inhibition of herpes-induced plaque formation” value is below 20 µg/mL.
As to `CC(CO[C@H]1[C@H](O)[C@@H](CO)OC(O)[C@@H]1O)CN(C)C` (stereo partly drawn) [3-O-3'-(2',N',N'-trimethylamino-n-propyl)-D-glucopyranose], in the data set with herpes simplex virus, the IC50 amounted to 2 µg/mL (≈ 7.16 µM) and the IC100 turned out to be 7 µg/mL.
For `CN(C)CCCO[C@H]1[C@H](O)[C@@H](CO)OC(O)[C@@H]1O` (stereo partly drawn) [3-O-3'-(N',N'-dimethylamino-n-propyl)-D-glucopyranose], the “potency of virus-inhibiting effect” value in data set [1] is given as “the most potent effect”. For the same compound, the IC50 in the data set on herpes simplex virus is 0.3 µg/mL (≈ 1.13 µM). For the same compound, the IC100 in the data set on herpes simplex virus stood at 1 µg/mL. In addition, in the data set on herpes simplex virus (relative to other derivatives of Table 2), the “anti-herpes potency” value was “the most potent derivative”. The “% Disease Suppression” value in the data set with influenza A2 /Hong Kong is listed as 82%. Besides, the “% of Population Protected” value with influenza A/PR/8 (setting [2]) came out at 14%; with influenza A/PR/8 (setting [3]) it was 23%; with influenza A/PR/8 (setting [4]), 50%. The entries for the “% Mortality” value in the data set with influenza A/PR/8 (setting [2]), with influenza A/PR/8 (setting [3]) and in the data set on influenza A/PR/8 (setting [4]) were 81%, 72% and 45%, respectively. The “protection against death” value in the data set on influenza A/PR/8 (3 s.c. dose levels, once 90 minutes before infection) is listed as “significant dose-dependent protection against death”.
As to `NCCCO[C@H]1[C@H](O)[C@@H](CO)OC(O)[C@@H]1O` (stereo partly drawn) [3-O-3'-n-propylamino-D-glucose, 3-O-3'-(n-propylamino)-D-glucopyranose], in the data set with herpes simplex virus, the IC50 was 3 µg/mL (≈ 12.6 µM) and the IC100 was above 20 µg/mL.
The like results for `CN1CCC(O[C@H]2[C@H](O)[C@@H](CO)OC(O)[C@@H]2O)CC1` (stereo partly drawn) [3-O-4'-(N-methylpiperidyl)-D-glucose, 3-O-4'-(N-methylpiperidyl)-D-glucopyranose] were, in that order, 0.7 µg/mL (≈ 2.52 µM) and 6 µg/mL.
Take `CN(C)CCCOC[C@H]1OC(O)[C@H](O)[C@@H](O)[C@H]1O` (stereo partly drawn) [6-O-3'-(N',N'-dimethylamino-n-propyl)-D-galactopyranose]: in the data set on herpes simplex virus, the IC50 turned out to be 2 µg/mL (≈ 7.54 µM) and the IC100 is above 10 µg/mL.
Regarding `CC1(C)OCC(C2OC3OC(C)(C)OC3C2OCCC#N)O1` [di-O-isopropylidene-3-O-3'-propionitrile-D-glucofuranose], the light sensitivity result in “light sensitivity” was “light sensitive”.
With `CC(CN(C)C)O[C@H]1O[C@H](CO)[C@@H](O)[C@H](O)[C@H]1O` (stereo partly drawn) [α-N,N-dimethylaminoisopropyl glucoside, α-N,N-dimethylaminoisopropyl-D-glucoside], the log reduction at 3 µg/mL in data set [1] (3 μg/ml, 100 TCD50 inoculum, BHK cells, 4.0 is maximum, read-out: Log Decrease in Infectivity of Virus Inoculum) worked out at 1.5. The log reduction at 10 µg/mL in data set [1] (10 μg/ml, 100 TCD50 inoculum, BHK cells, 4.0 is maximum (complete suppression), read-out: Log Decrease in Infectivity of Virus Inoculum) came out at 2.5. In the data set on herpes simplex virus, the IC50 amounted to 10 µg/mL (≈ 37.7 µM) and the IC100 is above 50 µg/mL.
